Entries after “also recorded” stand apart in the source; their conditions may differ.
Experiments:
MOLM13 cells = experiment: IC50 of BGB324 by resazurin assay, MOLM13; assay type: cell-based; conditions: Homo sapiens, MOLM-13, MOLM13 (responder)
Text: (§1) The diversity of AML cells and their responses was investigated using a panel of AML cell lines and assessing their responses after BGB324-treatment.

Mv4-11 cells = experiment: IC50 of BGB324 by resazurin assay, Mv4-11; assay type: cell-based; conditions: Homo sapiens, Mv4-11 (responder)
Text: as §1

OCI-M1 cells = experiment: IC50 of BGB324 by resazurin assay, OCI-M1; assay type: cell-based; conditions: Homo sapiens, OCI-M1 (non-responder)
Text: as §1

pAxl(Y779) = pAxl(Y779) by flow cytometry in MOLM13 cells (Example 2); assay type: cell-based, human
Experimental: (§2) Staining of Cells for Flow Cytometry, General Protocol: • Live cells were centrifuged at 300 G for 5 minutes, washed once with PBS and centrifuged again. Cells were then fixed in 4% PFA in PBS for 10 minutes at 37° C., and resuspended in PBS. Unless processed immediately, samples were at this point stored in PBS at 4° C. (up to three weeks) or at −80° C. (for long-term storage). If intracellular epitopes were stained, cells were permebealized in 90% MeOH for 30 minutes on ice. Unless processed immediately, samples were also be stored in 90% MeOH at −20° C. for up to two months. • Further staining procedure (permebealized or non-permebealized cells): • Cells were washed 1× in PBS and blocked in blocking buffer; either PBS+0.5% BSA or PBS+1:1000 Octagam (5 mg/ml) for 15 minutes at room temperature. Thereafter, cells were incubated with primary AB at the indicated dilutions in incubation buffer (IB, PBS+0.5% BSA) for 1 hour at room temperature. Cells were then washed 3× with IB and incubated with secondary AB (conjugated to a fluorescent flurophore) at 1:1000 dilution in IB for 30 minutes at room temperature. Finally, cells were washed 3× in IB and resuspended in PBS. Cells were analyzed immediately, or stored for up to 24 hours at 4° C. before analysis. • Analysis of cells was done on a BD LSR Fortessa or a BD C6 Accuri flow cytometer, and further processing was done using FlowJo v.7.6. • All incubation steps (but not storage) were done on a spinning wheel or gentle shaker.
MOLM13 cells were cultured in starvation medium (RPMI, 0.1% FBS) over night and treated with BGB324 at 3 μM for a total of 40 minutes. […] Cells were co-stained with pAxl(Y779) and tAxl (1H12) antibodies. […] When gating for Axl-expressing cells, we saw that the reduction of pAxl signal was only seen in Axl-positive cells, showing that the pAxl antibody appears to be Axl-specific (see FIG. 3).
pAxl was further assessed pAxl by, in the same experimental conditions, examining for phosphorylation of Akt (see above, and FIG. 2), comparing starvation with non-starved cells, and using MOLM13 wt, shAxl and shLuc (cells were co-stained with antibodies for both pAkt and pAxl). MOLM13shAxl were used as a negative control, to separate between background binding of the antibodies and the “real” pAxl-signal. In cells that were not starved, only a slight inhibition of pAxl after treatment was found (around 20% at 3 μM BGB324 dose).

total Axl = experiment: Total Axl by flow cytometry in MOLM13 cells (Example 2); assay type: cell-based, human; conditions: MOLM13 starved, 3 μM, 40 minutes
Experimental: as §2, with “Cells were then washed 3× with IB and incubated with secondary AB (conjugated to a fluorescent flurophore) at 1:1000 dilution in IB for 30 minutes at room temperature. Finally, cells were washed 3× in IB and resuspended in PBS.” left out, “shaker. […]” for “shaker.”

totAxl = experiment: Total Axl in AML cell panel, long-term treatment, flow cytometry; assay type: cell-based, human
Experimental: as §2, §1
(§3) Long-term treatment was done in complete medium, without starvation. The responders were treated with 0.05, 0.1 or 0.3 μM BGB324, whereas the non-responders were treated with only a single dose of 2.5 μM BGB324. The cells were fixed after 24, 48 or 72 hours, and the samples were stored in 90% MeOH at −20° C. until all samples were harvested, and stained for flow at the same time.

pAxl (Y779) = experiment: pAxl(Y779) in AML cell panel, short term treatment, flow cytometry; assay type: cell-based, human; conditions: 1 hour
Experimental: as §2, §1
(§4) When investigating phospho-markers, the cells were starved overnight in the appropriate growth medium containing 0.1% FBS, pre-treated with BGB324 at 0.5 and 1 μM for one hour, and stimulated with 10% FBS for 20 minutes (to induce phosphorylation, with BGB324 present). Cells were then fixed and stained for flow cytometric analyses.

pErk = pErk in AML cell panel, short term treatment, flow cytometry; assay type: cell-based, human
Experimental: as §2, §1, §4

totSLFN11 = experiment: Total SLFN11 in AML cell panel, long-term treatment, flow cytometry; assay type: cell-based, human
Experimental: as §2, §1, §3

SLFN11 [1] = experiment: Microarray analysis of xenograft material, SLFN11 transcript; assay type: in vivo, mice
Text: Slfn11 was included in the biomarker panel following microarray analysis of Mv4-11 and MOLM13 xenograft material after BGB324-treatment.

SLFN11 [2] = experiment: SLFN11 in CD33-positive cells, MOLM13 systemic xenograft model, flow cytometry; assay type: in vivo, mice; conditions: bone marrows, 50 mg/kg for 4 days
Experimental: Material from an in vivo MOLM13 systemic model was also evaluated by flow cytometry. Expression of the previously evaluated biomarkers was examined in cells isolated from bone marrows and spleens of animals with systemic AML disease (MOLM13, inoculated for 7 days prior to treatment) treated with BGB324 at 50 mg/kg for 4 days. The spleens analysed were from the same study that was analysed by microarray, as mentioned above. The bone marrows were from an identical study that was done at a later time point to get more material for flow analyses.
Cells isolated from spleens and bone marrows were assessed for phosphorylation of Erk, PLCγ1 and Akt, and expression of PHGDH and SLFN11. The samples were also co-stained with CD33, and biomarker expression was only evaluated in CD33-positive cells.

IC50 (MOLM13 cells): 450 nM | IC50 (Mv4-11 cells): 140 nM | IC50 (OCI-M1 cells): 1800 nM
SMILES: Nc1nc(Nc2ccc3c(c2)CC[C@@H](N2CCCC2)CC3)nn1-c1cc2c(nn1)-c1ccccc1CCC2 [BGB324, 1-(6,7-dihydro-5H-benzo[6,7]cyclohepta[1,2-c]pyridazin-3-yl)-N3-((7-(S)-pyrrolidin-1-yl)-6,7,8,9-tetrahydro-5H-benzo[7]annulene-2-yl)-1H-1,2,4-triazole-3,5-diamine]
inhibition at 3 µM (pAxl(Y779); Homo sapiens, MOLM-13, MOLM13 not starved (wt, shLuc, shAxl same)): ~20% | inhibition of pAxl (pAxl(Y779); MOLM13 shAxl, pre-starved, 3 μM): approximately 20% | pAxl(Y779) (pAxl(Y779); MOLM13 starved, 3 μM, 40 minutes): slight decrease in pAxl; also recorded: modest reduction of pAxl | total reduction of pAxl (pAxl(Y779); MOLM13 wt and shLuc, pre-starved, 3 μM): 40% | Total Axl expression (total Axl): did not change | Axl expression (totAxl; Kasumi, 2.5 μM, 24-72 hours): goes significantly up | Axl expression (totAxl; MOLM13, 0.3 μM, 24 hours): slight and significant reduction of Axl | Axl expression (totAxl; Mv4-11, 0.3 μM, 24 hours and 72 hours): slight and significant reduction of Axl | Axl expression (totAxl; OCI-AML5, 2.5 μM, 24-72 hours): goes significantly up | pAxl (pAxl (Y779); Kasumi, 0.5 and 1 μM): no response to treatment | phosphorylation of Axl at Y779 (pAxl (Y779); MOLM13, 0.5 and 1 μM): significantly reduced | phosphorylation of Axl at Y779 (pAxl (Y779); Mv4-11, 0.5 and 1 μM): significantly reduced | pAxl (pAxl (Y779); OCI-M1, highest treatment dose): slight (but significant) reduction of pAxl | pErk (pErk; Kasumi, 1 hour): no significant differences in pErk | phosphorylation of Erk (pErk; MOLM13, all treatment doses, 1 hour): strong and significant reduction | phosphorylation of Erk (pErk; Mv4-11, all treatment doses, 1 hour): strong and significant reduction | pErk (pErk; OCI-M1, 1 hour): no significant differences in pErk | SLFN11 expression (totSLFN11; Kasumi, 2.5 μM, 24 and 48 hours): no significant differences | SLFN11 expression (totSLFN11; Kasumi, 2.5 μM, 72 hours): significant increase of SLFN11 expression | total protein expression of SLFN11 (totSLFN11; MOLM13, 0.3 μM, 24, 48 and 72 hours): significant reduction | total protein expression of SLFN11 (totSLFN11; Mv4-11, 0.1 uM, 72 hours): significantly reduced | total protein expression of SLFN11 (totSLFN11; Mv4-11, 0.3 μM, 24, 48 and 72 hours): significant reduction | SLFN11 expression (totSLFN11; OCI-AML5, 2.5 μM, 24 and 48 hours): no significant differences | SLFN11 expression (totSLFN11; OCI-AML5, 2.5 μM, 72 hours): significant increase of SLFN11 expression | SLFN11 transcript (microarray) (SLFN11 [1]; MOLM13 systemic xenograft model): not significantly reduced | SLFN11 transcript (microarray) (SLFN11 [1]; Mv4-11 subcutaneous xenograft, 14 days of treatment): one of the most significantly downregulated transcripts | SLFN11 transcript (microarray) (SLFN11 [1]; Mv4-11 xenograft, single dose 100 mg/kg, 24 hours after treatment): significantly downregulated | SLFN11 expression (SLFN11 [2]): significant reduction

From patent publication US11035008B2, “Biomarkers for cancer” (BERGENBIO ASA, priority 2015, dated 2021)
